Data: patent publication US20100144755A1 (Glaxo Group Limited, priority 2006, published 2010)
Counter-ions that a name gives are not always drawn.

tested on: influx of neutrophils to the lung in LPS-challenged rats; test: Rat LPS neutrophilia model; type: in vivo; details: LPS aerosol, intratracheal dosing, in at least one of the range of conditions tested, significance p<0.05
Procedure: Rat LPS Neutrophilia Model
The effect of compounds on the influx of neutrophils to the lung in LPS-challenged rats is evaluated as follows. The test compound is suspended in one of the following solutions: 0.5% tween 80/PBS, 0.5% tween 80/saline, 10% EtOH/saline (with pH adjusted to 2.0, or 8.0 with HCl, or unadjusted), Saline @pH 2.0, 6.5 or 8.0, 0.5% Tragacanth, 1% DMSO/20% Encapsin/Saline, or acidified 5% Tragacanth. The suspension process may be aided by the use of a glass homogenizer. For intratracheal administration, the animals are anesthetized with inhaled isoflurane and placed in a supine position, the trachea is intubated with a steel gavage needle (1.5 inch, 22 gauge, small ball) or a Penn-Century Microsprayer Aerosolizer (model IA-1B) and 200 ul of dosing solution is delivered. The animals are visually monitored during the recovery process, which typically occurs within two minutes. It is noted that the test compounds may be alternatively administered via the microsprayer in a dry powder blend with a suitable excipient, such as lactose.
Rats treated with compound or vehicle (15 min-24 hours pretreatment) are exposed to an LPS aerosol (100 ug/ml) for 15 min. Four hours later the rats are euthanized with pentobarbital (100 mg/kg, i.p.) and the airways are lavaged with 5 washes of 5 ml of phosphate buffered saline. The harvested cells are stained (Diffquick) and counted to determine total and differential cell data. […] Inhibition of neutrophil levels relative to no compound controls is calculated based on the differential counts.
The data is obtained as % inhibition using a particular concentration and pretreat time.

Question: How did the inhibition of neutrophilia turn out when `Cc1ccc(NC(=O)c2ccsc2)cc1-c1nc(NC2CC(C)(C)NC(C)(C)C2)nc2c1ccc(=O)n2-c1c(F)cccc1F` [31(e), N-(3-{8-(2,6-difluorophenyl)-7-oxo-2-[(2,2,6,6-tetramethyl-4-piperidinyl)amino]-7,8-dihydropyrido[2,3-d]pyrimidin-4-yl}-4-methylphenyl)-3-thiophenecarboxamide] was run?
Answer: The inhibition of neutrophilia was “statistically significant inhibition”.

Question: `CCCNC(=O)c1ccc(C)c(-c2nc(NCCNC)nc3c2ccc(=O)n3-c2c(F)cccc2F)c1` [56(d), 3-(8-(2,6-difluorophenyl)-2-{[2-(methylamino)ethyl]amino}-7-oxo-7,8-dihydropyrido[2,3-d]pyrimidin-4-yl)-4-methyl-N-propylbenzamide] was tested. Which inhibition of neutrophilia did it give?
Answer: The inhibition of neutrophilia was “statistically significant inhibition”.

Question: For `Cc1ccc(C(=O)Nc2nccs2)cc1-c1nc(NCc2ncc[nH]2)nc2c1ccc(=O)n2-c1c(F)cccc1F` [79(c), 3-{8-(2,6-difluorophenyl)-2-[(1H-imidazol-2-ylmethyl)amino]-7-oxo-7,8-dihydropyrido[2,3-d]pyrimidin-4-yl}-4-methyl-N-1,3-thiazol-2-ylbenzamide], which inhibition of neutrophilia is on record?
Answer: Its inhibition of neutrophilia is “statistically significant inhibition”.

Question: For `CNC1CCN(c2nc(-c3cc(C(=O)NC(C)C)ccc3C)c3ccc(=O)n(-c4c(F)cccc4F)c3n2)CC1` [113(b), 3-{8-(2,6-difluorophenyl)-2-[4-(methylamino)-1-piperidinyl]-7-oxo-7,8-dihydropyrido[2,3-d]pyrimidin-4-yl}-4-methyl-N-(1-methylethyl)benzamide], which inhibition of neutrophilia is on record?
Answer: The inhibition of neutrophilia was “statistically nonsignificant inhibition”.

Question: With `CCN(CC)CCCNc1nc(-c2cc(C(=O)NC(C)C)ccc2C)c2ccc(=O)n(-c3c(F)cccc3F)c2n1` [118(b), 3-[2-{[3-(diethylamino)propyl]amino}-8-(2,6-difluorophenyl)-7-oxo-7,8-dihydropyrido[2,3-d]pyrimidin-4-yl]-4-methyl-N-(1-methylethyl)benzamide] as the molecule, how does the inhibition of neutrophilia read?
Answer: Its inhibition of neutrophilia is “statistically nonsignificant inhibition”.

Question: With `Cc1ccc(C(=O)NC(C)C)cc1-c1nc(N2CCC(N3CCC(C)CC3)CC2)nc2c1ccc(=O)n2-c1c(F)cccc1F` [163(c), 3-[8-(2,6-difluorophenyl)-2-(4-methyl-1,4′-bipiperidin-1′-yl)-7-oxo-7,8-dihydropyrido[2,3-d]pyrimidin-4-yl]-4-methyl-N-(1-methylethyl)benzamide] as the molecule, how does the inhibition of neutrophilia read?
Answer: The inhibition of neutrophilia was “statistically nonsignificant inhibition”.

Question: Which inhibition of neutrophilia does the source give for `CNCCNc1nc(-c2cc(C(=O)NCC3CC3)ccc2C)c2ccc(=O)n(-c3c(F)cccc3F)c2n1` [Example 4] here?
Answer: Its inhibition of neutrophilia is “statistically significant inhibition”.

Question: With `Cc1ccc(C(=O)NC2CC2)cc1-c1nc(N2CCC(N)CC2)nc2c1ccc(=O)n2-c1c(F)cccc1F` [Example 22, 3-[2-(4-amino-1-piperidinyl)-8-(2,6-difluorophenyl)-7-oxo-7,8-dihydropyrido[2,3-d]pyrimidin-4-yl]-N-cyclopropyl-4-methylbenzamide] as the molecule, how does the inhibition of neutrophilia read?
Answer: The inhibition of neutrophilia was “statistically significant inhibition”.

Question: Which inhibition of neutrophilia does the source give for `Cc1ccc(C(=O)NC2CC2)cc1-c1nc(NCc2ncc[nH]2)nc2c1ccc(=O)n2-c1c(F)cccc1F` [Example 23, N-cyclopropyl-3-{8-(2,6-difluorophenyl)-2-[(1H-imidazol-2-ylmethyl)amino]-7-oxo-7,8-dihydropyrido[2,3-d]pyrimidin-4-yl}-4-methylbenzamide] here?
Answer: Its inhibition of neutrophilia is “statistically nonsignificant inhibition”.

Question: Which inhibition of neutrophilia does the source give for `Cc1ccc(C(=O)NCC2CC2)cc1-c1nc(N2CCC(N)CC2)nc2c1ccc(=O)n2-c1c(F)cccc1F` [Example 27, 3-[2-(4-amino-1-piperidinyl)-8-(2,6-difluorophenyl)-7-oxo-7,8-dihydropyrido[2,3-d]pyrimidin-4-yl]-N-(cyclopropylmethyl)-4-methylbenzamide] here?
Answer: The inhibition of neutrophilia was “statistically significant inhibition”.

Question: `Cc1ccc(C(=O)NCCc2ccccc2)cc1-c1nc(NC2CC(C)(C)NC(C)(C)C2)nc2c1ccc(=O)n2-c1c(F)cccc1F` [Example 28, 3-{8-(2,6-difluorophenyl)-7-oxo-2-[(2,2,6,6-tetramethyl-4-piperidinyl)amino]-7,8-dihydropyrido[2,3-d]pyrimidin-4-yl}-4-methyl-N-(2-phenylethyl)benzamide] was tested. Which inhibition of neutrophilia did it give?
Answer: Its inhibition of neutrophilia is “statistically nonsignificant inhibition”.

Question: Which inhibition of neutrophilia does the source give for `CNCCNc1nc(-c2cc(C(=O)NCCc3ccccc3)ccc2C)c2ccc(=O)n(-c3c(F)cccc3F)c2n1` [Example 29, 3-(8-(2,6-difluorophenyl)-2-{[2-(methylamino)ethyl]amino}-7-oxo-7,8-dihydropyrido[2,3-d]pyrimidin-4-yl)-4-methyl-N-(2-phenylethyl)benzamide] here?
Answer: Its inhibition of neutrophilia is “statistically significant inhibition”.

Question: Which inhibition of neutrophilia does the source give for `Cc1ccc(C(=O)NC(C)C)cc1-c1nc(N(C)CCCN(C)C)nc2c1ccc(=O)n2-c1c(F)cccc1F` [Example 34, 3-{8-(2,6-difluorophenyl)-2-[[3-(dimethylamino)propyl](methyl)amino]-7-oxo-7,8-dihydropyrido[2,3-d]pyrimidin-4-yl}-4-methyl-N-(1-methylethyl)benzamide] here?
Answer: Its inhibition of neutrophilia is “statistically significant inhibition”.

Question: Which inhibition of neutrophilia does the source give for `Cc1ccc(NC(=O)c2cccc3cc[nH]c23)cc1-c1nc(NC(CO)CO)nc2c1ccc(=O)n2-c1c(F)cccc1F` [Example 44, N-[3-(8-(2,6-difluorophenyl)-2-{[2-hydroxy-1-(hydroxymethyl)ethyl]amino}-7-oxo-7,8-dihydropyrido[2,3-d]pyrimidin-4-yl)-4-methylphenyl]-1H-indole-7-carboxamide trifluoroacetate] here?
Answer: The inhibition of neutrophilia was “statistically significant inhibition”.

Question: Which inhibition of neutrophilia does the source give for `CNCCNc1nc(-c2cc(C(=O)NC(C)C)ccc2C)c2ccc(=O)n(-c3c(F)cccc3F)c2n1` [Example 57, 3-(8-(2,6-difluorophenyl)-2-{[2-(methylamino)ethyl]amino}-7-oxo-7,8-dihydropyrido[2,3-d]pyrimidin-4-yl)-4-methyl-N-(1-methylethyl)benzamide] here?
Answer: Its inhibition of neutrophilia is “statistically significant inhibition”.

Question: For `CNCCNc1nc(-c2cc(C(=O)NC3CCCC3)ccc2C)c2ccc(=O)n(-c3c(F)cccc3F)c2n1` [Example 58, N-cyclopentyl-3-(8-(2,6-difluorophenyl)-2-{[2-(methylamino)ethyl]amino}-7-oxo-7,8-dihydropyrido[2,3-d]pyrimidin-4-yl)-4-methylbenzamide], which inhibition of neutrophilia is on record?
Answer: Its inhibition of neutrophilia is “statistically significant inhibition”.

Question: With `CNCCNc1nc(-c2cc(C(=O)NCc3ccccc3)ccc2C)c2ccc(=O)n(-c3c(F)cccc3F)c2n1` [Example 59, 3-(8-(2,6-difluorophenyl)-2-{[2-(methylamino)ethyl]amino}-7-oxo-7,8-dihydropyrido[2,3-d]pyrimidin-4-yl)-4-methyl-N-(phenylmethyl)benzamide] as the molecule, how does the inhibition of neutrophilia read?
Answer: The inhibition of neutrophilia was “statistically significant inhibition”.

Question: For `CNCCNc1nc(-c2cc(C(=O)Nc3ccc(F)cc3)ccc2C)c2ccc(=O)n(-c3c(F)cccc3F)c2n1` [Example 60, 3-(8-(2,6-difluorophenyl)-2-{[2-(methylamino)ethyl]amino}-7-oxo-7,8-dihydropyrido[2,3-d]pyrimidin-4-yl)-N-(4-fluorophenyl)-4-methylbenzamide], which inhibition of neutrophilia is on record?
Answer: Its inhibition of neutrophilia is “statistically significant inhibition”.

Question: How did the inhibition of neutrophilia turn out when `CNCCNc1nc(-c2cc(C(=O)Nc3nccs3)ccc2C)c2ccc(=O)n(-c3c(F)cccc3F)c2n1` [Example 61, 3-(8-(2,6-difluorophenyl)-2-{[2-(methylamino)ethyl]amino}-7-oxo-7,8-dihydropyrido[2,3-d]pyrimidin-4-yl)-4-methyl-N-1,3-thiazol-2-ylbenzamide] was run?
Answer: The inhibition of neutrophilia was “statistically significant inhibition”.

Question: `Cc1ccc(C(=O)Nc2ccc(F)cc2)cc1-c1nc(NC2CC(C)(C)NC(C)(C)C2)nc2c1ccc(=O)n2-c1c(F)cccc1F` [Example 66, 3-{8-(2,6-difluorophenyl)-7-oxo-2-[(2,2,6,6-tetramethyl-4-piperidinyl)amino]-7,8-dihydropyrido[2,3-d]pyrimidin-4-yl}-N-(4-fluorophenyl)-4-methylbenzamide] was tested. Which inhibition of neutrophilia did it give?
Answer: The inhibition of neutrophilia was “statistically significant inhibition”.

Question: For `Cc1ccc(C(=O)Nc2nccs2)cc1-c1nc(NC2CC(C)(C)NC(C)(C)C2)nc2c1ccc(=O)n2-c1c(F)cccc1F` [Example 67, 3-{8-(2,6-difluorophenyl)-7-oxo-2-[(2,2,6,6-tetramethyl-4-piperidinyl)amino]-7,8-dihydropyrido[2,3-d]pyrimidin-4-yl}-4-methyl-N-1,3-thiazol-2-ylbenzamide], which inhibition of neutrophilia is on record?
Answer: Its inhibition of neutrophilia is “statistically nonsignificant inhibition”.

Question: `Cc1ccc(C(=O)NC(C)C)cc1-c1nc(N2CCC(N)CC2)nc2c1ccc(=O)n2-c1c(F)cccc1F` [Example 68, 3-[2-(4-amino-1-piperidinyl)-8-(2,6-difluorophenyl)-7-oxo-7,8-dihydropyrido[2,3-d]pyrimidin-4-yl]-4-methyl-N-(1-methylethyl)benzamide] was tested. Which inhibition of neutrophilia did it give?
Answer: The inhibition of neutrophilia was “statistically significant inhibition”.

Question: `CCCNC(=O)c1ccc(C)c(-c2nc(N3CCC(N)CC3)nc3c2ccc(=O)n3-c2c(F)cccc2F)c1` [Example 69, 3-[2-(4-amino-1-piperidinyl)-8-(2,6-difluorophenyl)-7-oxo-7,8-dihydropyrido[2,3-d]pyrimidin-4-yl]-4-methyl-N-propylbenzamide] was tested. Which inhibition of neutrophilia did it give?
Answer: Its inhibition of neutrophilia is “statistically significant inhibition”.
